Source: patent US20110237497A1, “COMPOSITIONS OF A V-ATPASE INHIBITOR IN COMBINATION WITH A GLUCOCORTICOID RECEPTOR LIGAND AND METHODS OF USE” (priority 2009, published 2011)

System: GR
Assay: GR transactivation, MMTV (pHHLuc) luciferase reporter in AD293 cells
Format: cell-based
Conditions: Dexamethasone 1 nM, 10 nM, 100 nM and 1 μM with or without Concanamycin A 1 nM, FIG. 2
Experimental: (§1) AD293 cells in 24 wells plate were transfected with 0.1 ng GR, 100 ng pHHLuc reporter together with 10 ng Renilla control plasmids in each well, then induced by EtOH (vehicle control), Dexamethasone (1 nM, 10 nM, 100 nM and 1 μM), with or without Bafilomycin A1 (100 nM). Dual-Luciferase values were measured by Promega standard manual.
as §1, with “Concanamycin A (1” for “Bafilomycin A1 (100”
FIG. 8 is a graph showing a summary of V-ATPase inhibitors in enhancing GR-Dex activity on MMTV (pHHLuc) reporter in AD293 cells. AD293 cells in 24 wells plate were transfected with 0.1 ng GR, 100 ng pHHLuc reporter together with 10 ng Renilla control plasmids in each well, then induce by EtOH (vehicle control), Dexamethasone (10 nM), with different V-ATPase inhibitors (Bafilomycin A1 100 nM; Concanamycin A 1 nM; Lobatamide A 100 nM) or vehicle control. Dual-Luciferase values were measured by Promega standard manual.

## C/C=C/C1OC(O)(C(C)C(O)C(C)C2OC(=O)/C(OC)=C/C(C)=C/C(C)C(O)C(CC)C(O)C(C)C/C(C)=C/C=C/C2OC)CC(OC2CC(O)C(OC(N)=O)C(C)O2)C1C (stereo not shown) [Concanamycin A, 6-(2-(4-((4E,6E,14E,16Z)-11-ethyl-10,12-dihydroxy-3,17-dimethoxy-7,9,13,15-tetramethyl-18-oxooxacyclooctadeca-4,6,14,16-tetraen-2-yl)-3-hydroxypentan-2-yl)-2-hydroxy-5-methyl-6-((E)-prop-1-enyl)tetrahydro-2H-pyran-4-yloxy)-4-hydroxy-2-methyltetrahydro-2H-pyran-3-yl carbamate]
  GR-dex dose-response of induction on MMTV (pHHLuc) reporter (GR transactivation): synergizes with Dex
